# Columns and labels:
# [1] = system: CF-T43 cells (ΔF508 CFTR); experiment: 36Cl chloride efflux assay in CF-T43 cells; format: cell-based; conditions: for effect of added agent on chloride efflux stimulated by isoproterenol and milrinone: added to milrinone and isoproterenol, FIG. 2; for chloride efflux rate increase (chloride transport) in the CF cells: CF-T43, isoproterenol 10 μM, milrinone 100 μM or IBMX 100 μM as labelled; for chloride efflux: agent(s) as labelled, no other drug, FIG. 1, FIG. 2
# Protocol: (§1) Two independent cell lines, Calu-3 and 16HBE, both derived from airway epithelial cells and both expressing normal CFTR (Shen et al., 1994; Haws et al., 1994; Haws et al., 1992) were assayed for increased Cl transport either by a radioisotopic flux assay or electrophysiologically. Using the method of Venglarik et al. (1990), cells were incubated in a Ringer's solution containing ^36 Cl to allow uptake of isotope into the cells, and then washed to remove external isotopic chloride. Efflux was measured by replacing the incubation solution every 30 seconds and quantitating the amount of ^36 Cl secreted into it. After 6 changes of solution (3 minutes), either drugs or placebos were added to the media. […] Efflux was then measured an additional 12 media changes (6 minutes).
# CF-T43 is an SV40 T-antigen transformed cell line derived from a CF nasal turbinate (Jetten, et al., 1989). These cells maintain many of the original epithelial characteristics, including defective cAMP-dependant chloride transport, and have been used as a model for CF airway cells, CF-T43 cells carry and express only the ΔF508 CFTR mutation. […] With reference to FIG. 1, the control efflux contains Hepes-buffered Ringer's solution (HBR) +0.2% dimethylsulfoxide (DMSO), which is the concentration of DMSO in which the drugs were dissolved. The arrow indicates when the drugs were added. Iso means isoproterenol; Mil means milrinone.
# [2] = system: CF nasal polyp epithelial cells homozygous for the ΔF508 mutation; experiment: 36Cl chloride efflux assay in primary CF nasal polyp epithelial cells; format: cell-based, human; conditions: for chloride efflux rate increase (chloride transport) in the CF cells: primary CF nasal polyp cells, isoproterenol 10 μM, milrinone 100 μM or IBMX 100 μM as labelled
# Protocol: A test was run to confirm that the chloride efflux in primary CF cells (as opposed to CF-T43 cells used above) is mediated by the cAMP-dependent, protein kinase A pathway and not by calcium-dependent chloride channels. Efflux assays were carried out on primary CF cells, being CF nasal polyp epithelial cells homozygous for the ΔF508 mutation. Any significant contribution of calcium-activated chloride channels was ruled out by incubating the cells in BAPTA-AM, and comparing the response induced by ionomycin to that of albuterol combined with milrinone.
# Transformed cell lines often have altered properties relative to the tissues from which they were derived. To determine if the responses seen in the transformed CF-T43 cells were representative of primary tissue cells, primary epithelial cells from CF nasal polyps were assayed for chloride efflux. Tissues were obtained from nasal polypectomies of CF patients and epithelial cells were isolated by digesting cells from basement membrane by collagenase followed by low speed centrifugations. After counting viable cells, cells were plated and assayed in the same way as the CF-T43 cells. A total of 5 such experiments were performed with polyp cells from different, unrelated patients.
# The effects of these compounds on chloride permeability were measured as the rate of ^36 Cl efflux after stimulation divided by the basal rate, given as rstim /rbas. […] Both CF types are homozygous for the ΔF508 mutation.
# [3] = system: Calu-3 and 16HBE airway epithelial cells expressing normal CFTR; experiment: 36Cl chloride efflux assay in airway epithelial cell lines expressing normal CFTR; format: cell-based; conditions: 100 μM each drug alone; Calu-3 and 16HBE cells
# Protocol: The nomenclature for cyclic nucleotide phosphodiesterases, as follows, is taken from Beavo (1990).
# as §1
# [4] = system: ΔF508 CFTR in Xenopus laevis oocytes; conditions: high concentrations of IBMX with relatively low concentrations of forskolin; cited from earlier work
# [5] = system: mutant CFTR in CF epithelial cells; conditions: Grubb et al. 1992; cited from earlier work
# [6] = system: cellular cAMP in CF-T43 cells; conditions: in combination with isoproterenol 10 μM
# [7] = system: normal CFTR in 293 cells; conditions: forskolin alone; normal type-transfected 293 cells
# [8] = system: 16HBE cells; experiment: Whole-cell voltage clamp; format: cell-based
# Protocol: Whole-cell voltage clamp was used to confirm that the chloride efflux was consistent with CFTR activation. 16HBE cells were exposed to varying concentrations of milrinone and the membrane potential clamped in increments of 10 mV from -150 mV to +50 mV. The resulting current was then plotted as a function of voltage. […] A linear current/voltage relationship is a characteristic of CFTR activation. If currents are carried by chloride there should be a reduction in current at any given voltage when chloride is replaced by an ion to which CFTR is impermeante, such as gluconate.
# [9] = 100 μM glibenclamide, CF-T43 cells
structure (smiles),measurement,setting,value
Nc1ncnc2c1ncn2[C@@H]1O[C@@H]2CO[P@@](O)(=S)O[C@H]2[C@H]1O [Rp-cAMPS],effect of added agent on chloride efflux stimulated by isoproterenol and milrinone,[1]; CF-T43 cells,abolished the increase in chloride efflux
C[C@H](CCC(=O)O)C[C@H](C)C[C@H](C)C(=O)/C=C(\O)[C@H](C)C[C@H](C)C/C=C/[C@@H](C)[C@@H](O)[C@@H](C)[C@@H](O)C[C@@H]1CC[C@@](C)([C@H]2CC[C@@](C)([C@@H](C)O)O2)O1 [ionomycin],chloride efflux response relative to the isoproterenol/milrinone response,[1]; CF-T43 cells,greater than the isoproterenol/milrinone response
same,chloride efflux response in the presence of BAPTA-AM,"[1]; CF-T43 cells, BAPTA-AM added",eliminated
same,chloride efflux response in the presence of BAPTA-AM,[2]; primary CF nasal polyp cells incubated in BAPTA-AM,eliminated
COc1ccc(Cl)cc1C(=O)NCCc1ccc(S(=O)(=O)NC(=O)NC2CCCCC2)cc1 [glibenclamide],effect on efflux elicited by ionomycin,[1]; [9],little effect
same,inhibition of β-adrenergic agonist/milrinone-stimulated efflux,[1]; [9],completely inhibited
CC(C)NCC(O)c1ccc(O)c(O)c1 (stereo not shown) [isoproterenol],chloride efflux rate increase (chloride transport) in the CF cells,[1],neither agent alone elicited a rate increase
same,chloride efflux,[1]; CF-T43 cells,no effect on chloride efflux
same,chloride efflux rate increase (chloride transport) in the CF cells,[2],neither agent alone elicited a rate increase
"CC(C)Cn1c(=O)n(C)c(=O)c2[nH]cnc21 [IBMX, 3-isobutyl-1-methylxanthine]",chloride efflux,[1]; CF-T43 cells,not provide an increase in efflux rate
same,increase in chloride efflux rate,[3],Only the inhibitors specific for type III phosphodiesterases produced detectable increases
same,activation of ΔF508 CFTR,[4],could be activated
same,activation of a chloride conductance,[5],unable to activate a chloride conductance
COc1ccc(C2CNC(=O)C2)cc1OC1CCCC1 (stereo not shown) [rolipram],increase in chloride efflux rate,[3],Only the inhibitors specific for type III phosphodiesterases produced detectable increases
"Nc1ncnc2c1ncn2[C@@H]1O[C@@H]2COP(O)(=S)O[C@H]2[C@H]1O (stereo partly shown) [Sp-cAMPS, Sp-adenosine 3':5'-cyclic phosphorothioate]",effect of added agent on chloride efflux stimulated by isoproterenol and milrinone,[1]; CF-T43 cells,enhanced
same,chloride efflux,[1]; CF-T43 cells,no effect on chloride efflux
"CNCCNS(=O)(=O)c1cccc2cnccc12 [H-8, N[-2-(methylamino)ethyl]-5-isoquinoline sulfonamide]",effect of preincubation on the isoproterenol/milrinone chloride efflux response,[2]; CF nasal polyp cells preincubated in H-8,dramatically reduced
Nc1cc(-c2ccncc2)c[nH]c1=O [amrinone],increase in chloride efflux rate,[3],greatest increase in chloride efflux rate
same,increase in cellular cAMP over baseline,"[6]; 15 minutes, CF-T43 cells",same as milrinone
C=C[C@@]1(C)CC(=O)[C@]2(O)[C@@]3(C)[C@@H](O)CCC(C)(C)[C@@H]3[C@H](O)[C@H](OC(C)=O)[C@@]2(C)O1 [forskolin],activation of chloride efflux,[7],sufficient to activate
Cc1[nH]c(=O)c(C#N)cc1-c1ccncc1 [milrinone],chloride efflux rate increase (chloride transport) in the CF cells,[1],neither agent alone elicited a rate increase
same,increase in chloride efflux rate,[3],greatest increase in chloride efflux rate
same,cAMP increase compared with isoproterenol alone,[6],not significantly above that of isoproterenol alone
same,reversal potential of current,[8]; all concentrations of milrinone,0 mV
same,current when chloride was replaced by gluconate,[8]; chloride replaced by gluconate,reduction of current
same,dose dependence of effect on whole-cell current,[8]; varying concentrations,dose-dependent
same,current/voltage relationship,"[8]; varying concentrations of milrinone, clamp -150 mV to +50 mV",linear
same,chloride efflux rate increase (chloride transport) in the CF cells,[2],neither agent alone elicited a rate increase
